Measured values: patent US9750738B2, “Arylpiperazine opioid receptor antagonists” (RESEARCH TRIANGLE INSTITUTE, priority 2010, dated 2017)

Experiments:
[1] = biological target: T1, cloned human μ opioid receptor (Homo sapiens, UniProt P35372); assay: Inhibition of DAMGO-stimulated [35S]GTPγS binding; type: biochemical; conditions: antagonism of agonist DAMGO; for Kb: read-out: μ, DAMGO Ke
T1 construct: expressed in transfected cells

[2] = biological target: T2, cloned human δ opioid receptor (Homo sapiens, UniProt P41143); assay: Inhibition of DPDPE-stimulated [35S]GTPγS binding; type: biochemical; conditions: antagonism of agonist DPDPE; for Kb: read-out: δ, DPDPE Ke
T2 construct: expressed in transfected cells

[3] = biological target: T3, cloned human κ opioid receptor (Homo sapiens, UniProt P41145); assay: Inhibition of U69,593-stimulated [35S]GTPγS binding; type: biochemical; conditions: antagonism of agonist U69,593, [35S]GTPγS binding; for Kb: read-out: κ, U69,593 ke
T3 construct: expressed in transfected cells
T3 sequence (P41145 whole entry): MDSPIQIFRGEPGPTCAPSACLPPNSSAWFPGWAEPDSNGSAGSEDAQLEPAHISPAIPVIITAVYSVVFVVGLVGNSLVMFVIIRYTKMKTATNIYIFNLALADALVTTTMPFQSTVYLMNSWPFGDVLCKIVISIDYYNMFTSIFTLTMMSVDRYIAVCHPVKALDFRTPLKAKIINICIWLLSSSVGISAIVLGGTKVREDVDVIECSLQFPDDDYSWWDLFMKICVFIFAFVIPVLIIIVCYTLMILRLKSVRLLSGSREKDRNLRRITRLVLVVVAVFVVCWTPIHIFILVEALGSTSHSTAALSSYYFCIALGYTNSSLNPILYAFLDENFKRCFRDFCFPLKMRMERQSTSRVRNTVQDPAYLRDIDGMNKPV

T2 sequence (P41143 whole entry): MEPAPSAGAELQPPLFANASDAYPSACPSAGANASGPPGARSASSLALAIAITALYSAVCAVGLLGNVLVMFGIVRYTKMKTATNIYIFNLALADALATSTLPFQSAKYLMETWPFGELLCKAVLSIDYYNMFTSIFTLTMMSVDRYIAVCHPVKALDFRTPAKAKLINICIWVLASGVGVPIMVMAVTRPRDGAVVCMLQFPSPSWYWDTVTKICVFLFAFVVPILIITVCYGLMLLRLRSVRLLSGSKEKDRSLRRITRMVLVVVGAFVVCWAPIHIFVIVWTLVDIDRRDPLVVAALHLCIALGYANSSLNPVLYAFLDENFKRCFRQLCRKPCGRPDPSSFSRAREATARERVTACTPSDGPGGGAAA
T1 sequence (P35372 whole entry): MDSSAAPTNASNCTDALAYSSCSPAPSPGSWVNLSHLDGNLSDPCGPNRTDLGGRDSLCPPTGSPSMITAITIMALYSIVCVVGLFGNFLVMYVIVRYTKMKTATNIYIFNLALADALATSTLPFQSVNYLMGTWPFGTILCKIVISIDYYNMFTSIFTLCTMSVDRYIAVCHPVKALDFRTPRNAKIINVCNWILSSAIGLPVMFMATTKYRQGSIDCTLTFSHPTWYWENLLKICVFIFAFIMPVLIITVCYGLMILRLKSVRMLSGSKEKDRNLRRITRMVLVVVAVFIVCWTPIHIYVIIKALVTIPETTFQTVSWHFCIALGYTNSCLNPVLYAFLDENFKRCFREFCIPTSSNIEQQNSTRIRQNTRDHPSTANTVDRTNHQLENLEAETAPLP

Compound	Kb [1] [nM]	Kb [2] [nM]	Kb [3] [nM]	further results
CCC1CN(CCCc2ccccc2)CCN1c1cccc(O)c1.Cl.Cl (stereo not shown)				melting point: 161 to 166 °C
C[C@H]1CN(C)CC[C@@]1(C)c1cccc(O)c1 [Compound 2b, reference compound]				μ, DAMGO Ke [1]: 29 ± 3 nM; δ, DPDPE Ke [2]: 680 ± 240 nM; κ, U69,593 ke [3]: 155 ± 24 nM
CC1CN(CCCc2ccccc2)CCC1(C)c1cccc(O)c1 (stereo not shown) [Compound 2c, N-phenylpropyl 3,4-dimethyl-4-(3-hydroxyphenyl)piperidine, reference compound]	0.1 ± 0.02	0.9 ± 0.3	0.88 ± 0.2	
Oc1cccc(N2CCN(CCCc3ccccc3)CC2)c1 [Compound 5a, 3-(4-Phenylpropylpiperazin-1-yl)phenol]	8.5 ± 1.4	34 ± 6	15 ± 3	
C[C@H]1CN(CCCc2ccccc2)CCN1c1cccc(O)c1 [Compound 5b, (S)-3-(2-Methyl-4-phenylpropylpiperazin-1-yl)phenol]	0.88	13.4	4.09	
C[C@@H]1CN(CCCc2ccccc2)CCN1c1cccc(O)c1 [Compound 5c, (R)-3-(2-Methyl-4-phenylpropylpiperazin-1-yl)phenol]	1 ± 0.2	7 ± 2	1.5 ± 0.4	
CC1CN(CCCc2ccccc2)CC(C)N1c1cccc(O)c1 (stereo not shown) [Compound 5d, (Z)-3-(2,6-Dimethyl-4-(3-phenylpropyl)piperazin-1-yl)phenol]		4300	3	
C[C@H]1CN(c2cccc(O)c2)[C@@H](C)CN1CCCc1ccccc1 [Compound 5e, 3-[(2S,5S)-2,5-Dimethyl-4-(3-phenylpropyl)piperazin-1-yl]phenol]			7 ± 0.3	
C[C@H]1CN(C)CCN1c1cccc(O)c1 [Compound 5f, (S)-3-(2,4-Dimethylpiperazin-1-yl)phenol]	508 ± 26		193 ± 19	
C[C@@H]1CN(c2cccc(O)c2)[C@@H](C)CN1CCCc1ccccc1 [Compound 5g, 3-((2S,5R)-2,5-Dimethyl-4-(3-phenylpropyl)piperazin-1-yl)phenol]	6.1 ± 1.7	55 ± 3	4.2 ± 0.8	
C[C@@H]1CN(CCCc2ccccc2)[C@@H](C)CN1c1cccc(O)c1 [Compound 5h, 3-((2R,5S)-2,5-Dimethyl-4-(3-phenylpropyl)piperazin-1-yl)phenol]	18 ± 4	179 ± 68	26 ± 7	
CC(C)[C@H](N)CN1CCN(c2cccc(O)c2)[C@@H](C)C1 [Compound 5i, 3-{(2S)-4-[(2S)-2-Amino-3-methylbutyl]-2-methylpiperazin-1-yl}phenol]	2	55	10	
CC(C)[C@@H](CN1CCN(c2cccc(O)c2)[C@@H](C)C1)NC(=O)[C@H]1Cc2ccc(O)cc2CN1 [Compound 5j, (3R)-7-Hydroxy-N-[(1S)-1-{[(3S)-4-(3-hydroxyphenyl)-3-methylpiperazin-1-yl]methyl}-2-methylpropyl]-1,2,3,4-tetrahydroisoquinoline-3-carboxamide]	22 ± 4	274 ± 48	2.7 ± 0.1	
C[C@@H](N)CN1CCN(c2cccc(O)c2)[C@@H](C)C1 [Compound 31b, 3-{(2S)-4-[(2R)-2-amino-propyl]-2-methylpiperazin-1-yl}phenol]				melting point: 210 to 215 °C
